For orientation: inhibition means the percentage by which the read-out fell short of the control. Broadly, the IC50 is the point on the concentration scale where inhibition reaches its midpoint. Broadly, the Ki is a measure of affinity in units of concentration, obtained from inhibition or displacement.

Data set [1] has as its system LNCaP. The data set can be described thus: Cytotoxicity against human LNCAP cells assessed as inhibition of DHT-induced cell growth at 5 uM. The data set is classed as functional.
Data set [2] addresses T1, Androgen receptor (Homo sapiens, UniProt P10275).
T1 sequence (P10275 whole entry): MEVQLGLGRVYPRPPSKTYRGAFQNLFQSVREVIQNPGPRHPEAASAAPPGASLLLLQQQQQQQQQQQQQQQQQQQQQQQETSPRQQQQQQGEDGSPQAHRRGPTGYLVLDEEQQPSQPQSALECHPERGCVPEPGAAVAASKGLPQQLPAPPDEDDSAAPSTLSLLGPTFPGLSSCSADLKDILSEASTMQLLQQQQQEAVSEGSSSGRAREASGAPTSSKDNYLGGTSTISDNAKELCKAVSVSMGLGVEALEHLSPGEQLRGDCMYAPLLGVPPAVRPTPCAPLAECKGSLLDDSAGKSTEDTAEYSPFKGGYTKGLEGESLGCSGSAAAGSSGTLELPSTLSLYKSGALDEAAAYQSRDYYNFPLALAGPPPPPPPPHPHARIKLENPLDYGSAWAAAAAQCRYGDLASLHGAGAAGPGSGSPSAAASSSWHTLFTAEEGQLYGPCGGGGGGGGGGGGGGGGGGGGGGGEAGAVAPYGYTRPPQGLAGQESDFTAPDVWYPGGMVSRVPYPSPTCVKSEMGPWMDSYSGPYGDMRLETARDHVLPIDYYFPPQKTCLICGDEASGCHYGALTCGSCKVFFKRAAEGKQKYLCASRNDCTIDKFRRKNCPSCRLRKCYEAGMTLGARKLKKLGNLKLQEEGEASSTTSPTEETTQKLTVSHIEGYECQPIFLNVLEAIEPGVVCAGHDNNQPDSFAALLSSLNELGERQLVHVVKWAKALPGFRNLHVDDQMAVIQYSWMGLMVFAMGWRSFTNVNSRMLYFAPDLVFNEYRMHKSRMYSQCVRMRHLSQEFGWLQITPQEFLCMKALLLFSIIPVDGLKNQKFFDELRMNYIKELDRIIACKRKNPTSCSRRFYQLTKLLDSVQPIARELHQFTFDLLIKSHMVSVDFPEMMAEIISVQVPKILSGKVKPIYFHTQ
Description: Antagonist activity at human wild type AR expressed in human MDA-MB-435 cells by transactivation assay

Data set [3] concerns MDA-MB-435. The data set can be described thus: Cytotoxicity against human MDA-MB-435 cells assessed as inhibition of DHT-induced cell growth at 5 uM. Type of data set: functional.
Data set [4] deals with T1, Androgen receptor. The data set can be described thus: Displacement of [3H]DHT from AR in human MDA-MB-453 cells. A general note: Loss of bound radioactivity is the signal in a displacement assay; it reports binding, not function.
The target in data set [5] is T1, Androgen receptor. This is another data set of the same source.
Description: Antagonist activity at wild type human AR expressed in human LNCAP cells by transactivation assay
The nature of data set [6]: Metabolic stability in human liver microsomes assessed as compound remaining at 3 uM after 10 mins. The note with it: read-out: Activity. The data set is classed as ADME, Microsome.
The subject of data set [7] is Rattus norvegicus. The data set can be described thus: Effect on immature rat prostate weight in rat assessed as ratio of weight of seminal vesicles to full body weight at 1 mg/kg, po qd for 3 days relative to control. The data set is classed as functional, Prostate gland.
Data set [8] relates to Rattus norvegicus. In words: Effect on immature rat prostate weight in rat assessed as ratio of weight of seminal vesicles to full body weight at 30 mg/kg, po qd for 3 days relative to control. Type of data set: functional, Prostate gland.
Data set [9] is described as follows: Metabolic stability in rat liver microsomes assessed as compound remaining at 3 uM after 10 mins. Type of data set: ADME, Microsome. The conditions noted are these: read-out: Activity. In general terms: Liver microsomes are vesicles of endoplasmic reticulum, rich in cytochrome P450 enzymes.
Data set [10] is described as follows: Metabolic stability in mouse liver microsomes assessed as compound remaining at 3 uM after 10 mins. Type of data set: ADME, Microsome. The note with it: read-out: Activity.

Consider `C[C@]12CN(c3cccc(S(N)(=O)=O)c3)C[C@](C)(O1)[C@@H]1C(=O)N(c3ccc(C#N)c(C(F)(F)F)c3)C(=O)[C@@H]12`, for which the inhibition at 5 µM is 94% in data set [1] and 99% in data set [3]. In addition, the IC50 in data set [2] turned out to be 37 nM; in [5] it was 337 nM. Besides, the Ki in [4] is 22 nM.
Take `C[C@]12CN(c3cccc(S(C)(=O)=O)c3)C[C@](C)(O1)[C@@H]1C(=O)N(c3ccc(C#N)c(C(F)(F)F)c3)C(=O)[C@@H]12`: the inhibition at 5 µM came to 98% in data set [1] and 96% in data set [3]. Besides, the remaining at 10 min, 3 µM in data set [6] came to 76%; in data set [9], 100%; in data set [10], 92%. Also, the IC50 is 7.4 nM in data set [2] and 150 nM in [5]. Also, the affinity in [4] corresponds to a Ki of 9.4 nM. The Activity came out at 37% in data set [7] and 28% in data set [8].
On to `C[C@]12CN(c3ncccn3)C[C@](C)(O1)[C@@H]1C(=O)N(c3ccc(C#N)c(C(F)(F)F)c3)C(=O)[C@@H]12`, for which the inhibition at 5 µM came out at 97% in data set [1] and 99% in [3]. The IC50 in data set [2] was found to be 31 nM; in data set [5], 377 nM. In data set [4], this molecule displayed a Ki of 6.1 nM.
